The source of these data is patent publication US20070161623A1, “Urea derivatives” (MERCK PATENT GMBH, priority 2004, published 2007).

In this assay the target is FXa (Homo sapiens, UniProt P00742). Briefly: Factor Xa inhibition (FXa-IC50). Format: biochemical. From the text: The inhibition of factor Xa by the compounds according to the invention and the measurement of the anticoagulant and antithrombotic activity can be determined by conventional in-vitro or in-vivo methods. A suitable method is described, for example, by J. Hauptmann et al. in Thrombosis and Haemostasis 1990, 63, 220-223.
The inhibition of factor Xa can be measured, for example by the method of T. Hara et al. in Thromb. Haemostas. 1994, 71, 314-319.

Sequence of FXa (P00742 235-488 limits assumed): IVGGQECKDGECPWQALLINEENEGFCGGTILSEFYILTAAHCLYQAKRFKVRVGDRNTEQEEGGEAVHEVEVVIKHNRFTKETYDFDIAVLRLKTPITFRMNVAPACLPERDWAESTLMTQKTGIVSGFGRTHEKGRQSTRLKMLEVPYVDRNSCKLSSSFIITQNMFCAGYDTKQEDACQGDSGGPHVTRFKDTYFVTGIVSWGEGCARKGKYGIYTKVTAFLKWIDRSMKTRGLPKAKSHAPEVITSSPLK
Sequence of FXa (P00742 41-179 limits assumed): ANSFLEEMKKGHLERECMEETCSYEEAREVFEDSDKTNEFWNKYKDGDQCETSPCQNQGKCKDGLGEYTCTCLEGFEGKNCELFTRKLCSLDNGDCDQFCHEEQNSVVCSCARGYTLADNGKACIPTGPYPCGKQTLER

With `Cc1cc(NC(=O)Nc2ccncc2NC(=O)Nc2ccc(Cl)cc2)ccc1N1CCOCC1=O` [Compound B0, 1-(4-Chlorophenyl)-3-(4-{3-[3-methyl-4-(3-oxomorpholin-4-yl)-phenyl]ureido}pyridin-3-yl)urea], the IC50 (as a rule, the midpoint of a concentration-inhibition curve) is 420 nM.
`Cc1cc(NC(=O)Nc2cc(O)ccc2NC(=O)Nc2ccc(Cl)cc2)ccc1N1CCOCC1=O` [Compound A1, 1-(4-chlorophenyl)-3-(4-hydroxy-2-{3-[3-methyl-4-(3-oxo-morpholin-4-yl)phenyl]ureido}phenyl)urea] had an IC50 of 12 nM.
